Activity calls are given as the source filed them. No cut-off for these calls is given here.
Experiments:
[1] = molecular target: T1, Sialyltransferase ST3Gal-I (Rattus norvegicus) (UniProt Q6H8N0); assay: Inhibition of rat ST3GAL1 at 1000 uM by UPLC-based assay relative to control
T1 sequence (whole entry): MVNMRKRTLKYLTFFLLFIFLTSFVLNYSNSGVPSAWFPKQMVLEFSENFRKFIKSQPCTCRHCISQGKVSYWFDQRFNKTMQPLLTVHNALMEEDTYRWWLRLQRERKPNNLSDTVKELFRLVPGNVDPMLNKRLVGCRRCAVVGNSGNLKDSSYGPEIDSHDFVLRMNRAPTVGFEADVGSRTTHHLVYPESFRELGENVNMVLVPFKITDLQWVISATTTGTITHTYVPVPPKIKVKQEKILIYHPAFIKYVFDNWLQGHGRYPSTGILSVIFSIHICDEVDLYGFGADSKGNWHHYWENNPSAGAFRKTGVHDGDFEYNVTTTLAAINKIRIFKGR

[2] = Selectivity index, ratio of IC50 for inhibition of rat ST3GAL1 to IC50 for inhibition of human ST6GAL1
[3] = test system: MDA-MB-231; assay: Antimigratory activity against human MDA-MB-231 cells at 60 uM incubated for 16 hrs by transwell migration assay; type: functional, cell-based
[4] = test system: MDA-MB-231; assay: Inhibition of cell invasion in human MDA-MB-231 cells at 60 uM; type: functional, cell-based
[5] = test system: MDA-MB-231; assay: Inhibition of cell invasion in human MDA-MB-231 cells assessed as reduction in cell adhesion to collagen IV at 60 uM incubated for 48 hrs; type: functional, cell-based
[6] = molecular target: Integrin alpha-5 (Homo sapiens) (UniProt P08648); assay: Inhibition of integrin alpha-5 in human MDA-MB-231 cells assessed as decrease in sialylation level incubated for 48 hrs by Western blot analysis; type: cell-based; details: dose 20-80 µM
Integrin alpha-5 (Homo sapiens), sequence (P08648 42-894 limits assumed): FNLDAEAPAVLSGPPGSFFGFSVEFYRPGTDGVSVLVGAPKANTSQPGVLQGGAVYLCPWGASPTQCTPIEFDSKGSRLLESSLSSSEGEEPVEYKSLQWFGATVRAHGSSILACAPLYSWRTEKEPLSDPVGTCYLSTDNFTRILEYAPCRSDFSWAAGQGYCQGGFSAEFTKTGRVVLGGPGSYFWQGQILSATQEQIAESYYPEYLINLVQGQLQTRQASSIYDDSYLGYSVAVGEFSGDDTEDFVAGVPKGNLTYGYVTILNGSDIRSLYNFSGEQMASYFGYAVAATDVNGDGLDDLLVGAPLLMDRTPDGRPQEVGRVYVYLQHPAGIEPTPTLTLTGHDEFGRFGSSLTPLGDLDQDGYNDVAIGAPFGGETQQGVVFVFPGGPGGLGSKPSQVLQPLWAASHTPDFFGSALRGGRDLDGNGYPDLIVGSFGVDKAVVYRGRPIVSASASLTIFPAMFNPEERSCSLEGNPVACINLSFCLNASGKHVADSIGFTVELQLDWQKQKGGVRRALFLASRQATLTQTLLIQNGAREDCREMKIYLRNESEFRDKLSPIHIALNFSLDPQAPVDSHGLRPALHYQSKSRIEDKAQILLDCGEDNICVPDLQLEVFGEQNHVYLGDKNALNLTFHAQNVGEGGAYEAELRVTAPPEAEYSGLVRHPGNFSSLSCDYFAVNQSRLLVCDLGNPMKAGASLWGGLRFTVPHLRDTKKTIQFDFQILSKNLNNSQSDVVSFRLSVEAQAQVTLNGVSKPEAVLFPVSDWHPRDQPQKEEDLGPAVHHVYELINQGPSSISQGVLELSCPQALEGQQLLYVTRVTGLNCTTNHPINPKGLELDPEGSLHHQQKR
Integrin alpha-5 (Homo sapiens), sequence (P08648 895-1049 limits assumed): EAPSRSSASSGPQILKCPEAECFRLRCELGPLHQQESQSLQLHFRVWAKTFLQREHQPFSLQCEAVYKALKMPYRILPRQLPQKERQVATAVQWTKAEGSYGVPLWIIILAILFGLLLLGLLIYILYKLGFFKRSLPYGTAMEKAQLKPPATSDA

[7] = molecular target: T2, Integrin beta-3 (Homo sapiens) (UniProt P05106); assay: Inhibition of integrin beta-3 in human MDA-MB-231 cells assessed as decrease in sialylation level incubated for 48 hrs by Western blot analysis; type: cell-based; details: dose 20-80 µM
T2 sequence (whole entry): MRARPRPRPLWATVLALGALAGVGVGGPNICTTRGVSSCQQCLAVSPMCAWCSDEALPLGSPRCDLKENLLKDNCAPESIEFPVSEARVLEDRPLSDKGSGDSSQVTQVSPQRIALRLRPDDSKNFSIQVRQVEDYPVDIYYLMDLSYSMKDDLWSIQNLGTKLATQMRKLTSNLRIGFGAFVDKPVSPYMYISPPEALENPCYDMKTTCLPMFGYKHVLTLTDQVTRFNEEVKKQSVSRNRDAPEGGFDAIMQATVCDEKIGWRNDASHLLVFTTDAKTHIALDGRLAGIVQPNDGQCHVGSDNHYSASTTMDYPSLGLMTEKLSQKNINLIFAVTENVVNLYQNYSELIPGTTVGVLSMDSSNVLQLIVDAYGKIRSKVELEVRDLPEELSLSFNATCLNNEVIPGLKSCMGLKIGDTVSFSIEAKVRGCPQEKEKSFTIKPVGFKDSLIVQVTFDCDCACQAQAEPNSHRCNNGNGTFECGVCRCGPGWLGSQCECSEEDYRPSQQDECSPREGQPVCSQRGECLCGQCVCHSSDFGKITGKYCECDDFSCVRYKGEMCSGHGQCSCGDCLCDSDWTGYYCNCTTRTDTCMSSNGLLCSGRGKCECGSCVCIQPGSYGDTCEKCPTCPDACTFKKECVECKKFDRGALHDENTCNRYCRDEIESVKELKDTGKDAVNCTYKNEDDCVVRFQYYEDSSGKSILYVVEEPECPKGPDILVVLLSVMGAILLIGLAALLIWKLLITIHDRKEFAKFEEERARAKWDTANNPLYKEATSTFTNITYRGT

[8] = molecular target: Integrin beta-4 (Homo sapiens) (UniProt P16144); assay: Inhibition of integrin beta-4 in human MDA-MB-231 cells assessed as decrease in sialylation level incubated for 48 hrs by Western blot analysis; type: cell-based; details: dose 20-80 µM
Integrin beta-4 (Homo sapiens), sequence (P16144 whole entry): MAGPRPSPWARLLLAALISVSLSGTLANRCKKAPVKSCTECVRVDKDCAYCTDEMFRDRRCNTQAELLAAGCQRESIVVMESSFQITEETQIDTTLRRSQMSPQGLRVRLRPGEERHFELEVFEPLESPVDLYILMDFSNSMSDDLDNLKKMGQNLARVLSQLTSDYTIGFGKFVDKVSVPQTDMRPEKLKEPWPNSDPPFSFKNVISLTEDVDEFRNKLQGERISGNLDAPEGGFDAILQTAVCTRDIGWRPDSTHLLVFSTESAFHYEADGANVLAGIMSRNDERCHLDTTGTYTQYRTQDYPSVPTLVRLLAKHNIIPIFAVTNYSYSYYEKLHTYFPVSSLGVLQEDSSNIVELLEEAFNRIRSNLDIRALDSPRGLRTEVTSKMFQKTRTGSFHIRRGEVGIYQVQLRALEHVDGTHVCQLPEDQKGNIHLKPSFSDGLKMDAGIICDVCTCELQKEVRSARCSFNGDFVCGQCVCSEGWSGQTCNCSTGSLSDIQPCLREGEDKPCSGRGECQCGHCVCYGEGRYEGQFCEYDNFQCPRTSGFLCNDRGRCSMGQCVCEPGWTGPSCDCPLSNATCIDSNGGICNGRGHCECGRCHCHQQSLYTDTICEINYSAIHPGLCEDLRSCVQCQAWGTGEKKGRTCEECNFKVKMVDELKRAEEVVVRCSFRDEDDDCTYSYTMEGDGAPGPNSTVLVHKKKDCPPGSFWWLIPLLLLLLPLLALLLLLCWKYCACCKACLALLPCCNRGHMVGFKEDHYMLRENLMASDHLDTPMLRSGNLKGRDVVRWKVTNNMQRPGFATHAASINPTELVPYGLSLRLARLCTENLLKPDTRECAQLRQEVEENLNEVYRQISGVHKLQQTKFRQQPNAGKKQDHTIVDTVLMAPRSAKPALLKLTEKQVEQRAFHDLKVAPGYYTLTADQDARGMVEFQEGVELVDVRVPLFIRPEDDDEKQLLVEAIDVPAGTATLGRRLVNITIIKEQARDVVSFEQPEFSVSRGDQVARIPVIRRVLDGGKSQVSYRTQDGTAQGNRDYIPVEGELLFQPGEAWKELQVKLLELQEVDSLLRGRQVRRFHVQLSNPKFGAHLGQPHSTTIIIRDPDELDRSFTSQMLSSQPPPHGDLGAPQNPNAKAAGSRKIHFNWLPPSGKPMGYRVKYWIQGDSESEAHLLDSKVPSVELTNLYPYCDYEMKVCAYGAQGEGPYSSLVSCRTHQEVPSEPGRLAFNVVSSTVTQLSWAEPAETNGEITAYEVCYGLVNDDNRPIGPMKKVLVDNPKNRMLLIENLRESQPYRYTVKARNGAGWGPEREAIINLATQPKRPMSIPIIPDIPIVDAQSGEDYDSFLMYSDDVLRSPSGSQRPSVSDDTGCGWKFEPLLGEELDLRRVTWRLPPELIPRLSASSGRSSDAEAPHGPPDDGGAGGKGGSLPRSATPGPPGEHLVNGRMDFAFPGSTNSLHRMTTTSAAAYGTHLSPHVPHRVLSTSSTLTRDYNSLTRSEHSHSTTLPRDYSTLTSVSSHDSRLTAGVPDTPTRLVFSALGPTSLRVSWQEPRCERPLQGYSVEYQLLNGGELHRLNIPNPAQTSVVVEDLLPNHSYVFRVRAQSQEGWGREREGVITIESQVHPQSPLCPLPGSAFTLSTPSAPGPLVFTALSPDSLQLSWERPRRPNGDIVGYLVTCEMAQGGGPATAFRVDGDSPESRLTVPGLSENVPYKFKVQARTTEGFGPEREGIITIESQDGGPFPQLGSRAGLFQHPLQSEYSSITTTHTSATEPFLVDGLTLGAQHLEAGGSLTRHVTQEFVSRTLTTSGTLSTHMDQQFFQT

[9] = test system: MDA-MB-231; assay: Effect on total FAK expression level in human MDA-MB-231 cells at 20 to 80 uM incubated for 2 hrs by Western blot analysis; type: functional, cell-based; details: dose 20-80 µM

In the case of `C[C@H](CCCOS(=O)(=O)O)[C@H]1CC[C@H]2[C@@H]3CC[C@@H]4C[C@H](O)CC[C@]4(C)[C@H]3CC[C@]12C`, the inhibition [1] is reported as 15%, the Ratio IC50 [2] is reported as over 60 and the Activity [3] is reported as “Active”. The inhibition [4] was “Active”, the inhibition [5] was “Active” and the Activity [6] was “Dose-Dependent Effect”. For the same molecule, the Activity [7] was “Dose-Dependent Effect”, the Activity [8] was “Dose-Dependent Effect” and the Activity [9] was “inactive”.

Source: ChEMBL document CHEMBL5634174, “Biological evaluation of sulfonate and sulfate analogues of lithocholic acid: A bioisosterism-guided approach towards the discovery of potential sialyltransferase inhibitors for antimetastatic study” (Bioorg Med Chem Lett, 2024)
